For this assay, the target named is Casein kinase II subunit alpha (Homo sapiens) (UniProt P68400).

Calls of active or inactive are those of the source. The calls are words filed in the database; no cut-off is given here.

From ChEMBL document CHEMBL4033678, “A fragment-based approach leading to the discovery of a novel binding site and the selective CK2 inhibitor CAM4066” (Bioorg Med Chem, 2017) come the findings set out here.

Chain of Casein kinase II subunit alpha (Homo sapiens) (P68400 whole entry, looked up): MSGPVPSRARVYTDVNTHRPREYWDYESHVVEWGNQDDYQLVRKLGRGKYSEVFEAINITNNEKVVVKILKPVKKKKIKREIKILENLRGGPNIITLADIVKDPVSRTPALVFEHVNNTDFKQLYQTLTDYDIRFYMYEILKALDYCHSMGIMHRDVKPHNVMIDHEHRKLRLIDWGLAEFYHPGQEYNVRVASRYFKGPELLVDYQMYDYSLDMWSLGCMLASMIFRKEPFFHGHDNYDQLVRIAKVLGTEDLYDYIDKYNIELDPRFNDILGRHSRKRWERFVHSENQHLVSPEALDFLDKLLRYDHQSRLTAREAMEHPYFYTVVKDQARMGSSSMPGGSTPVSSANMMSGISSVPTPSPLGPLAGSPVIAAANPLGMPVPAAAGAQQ

Broadly, the ΔTm is the change in melting temperature against a reference sample. For `O=C(O)c1ccc[nH]c1=O`, the shift in melting temperature (ΔTm) is -1.8 °C. Turning to `O=C(O)c1cc2cc(O)ccc2[nH]1`, the deltaTm result was “inactive”.

Take `Cc1cc(C(=O)O)ccc1N`: the ΔTm is 0.5 °C. In the case of `COc1cc(CC(=O)O)ccc1O`, the deltaTm result is “inactive”.

`O=C(O)C(=O)Cc1ccccc1`: the shift in melting temperature (ΔTm) is -0.6 °C. With `O=C(O)CCc1ccc(O)cc1`, the ΔTm was 3.1 °C. Still for that read-out and setting: the value for `O=C(O)Cc1ccc(Cl)c(Cl)c1` was 0.7 °C. On to `Nc1cc(Br)cnc1N`, for which the deltaTm result was “inactive”.

Take `O=C(O)c1cc2cc(F)ccc2[nH]1`: the ΔTm was found to be 4.1 °C. Take `O=C(O)c1cccc(C(=O)O)n1`: the ΔTm is -0.5 °C. Same read-out and setting: the value for `O=C(O)c1ccc2cc[nH]c2c1` was 3 °C; that for `O=C(O)c1ccc(O)cc1O` was 3.2 °C. Same read-out and setting: the value for `NNc1ccc(C(=O)O)cc1` was 3.8 °C; that for `Cc1ccc(O)c(C(=O)O)c1` was 4.1 °C; that for `O=c1cc(O)c2ccccc2o1` was 3.8 °C. Regarding `Nc1cccc(C(=O)O)c1`, the ΔTm came out at 0 °C. With `CCCCOC(=O)N1CCC(N)CC1`, the shift in melting temperature (ΔTm) amounted to 0.3 °C. Consider `OC1CCC(N2CCNCC2)CC1` (stereo not drawn), for which the ΔTm amounted to 0.8 °C.

Take `NC(=O)c1ccc(O)cc1`: the deltaTm result is “inactive”. The same measure, in the same setting: as for `O=C(O)Cc1cc(=O)oc2ccccc12`, the entry is “inactive”; as for `O=C(O)c1cc(=O)c2ccccc2o1`, “inactive”.

With `O=C(O)c1ccc(O)c(O)c1`, the ΔTm worked out at 2.4 °C. `O=C(O)c1ccc2ccccc2n1`: the deltaTm result was “inactive”.
